The Ki is a measure of affinity in units of concentration, obtained from inhibition or displacement. Usually half-life stands for the time needed for the level to fall by half in the phase considered. A low value points to rapid decline. The term Papp A→B denotes the apparent permeability from the apical to the basolateral side of a cell layer. As usually defined, the clearance is the volume of plasma or blood freed of the substance per unit of time. A high value points to efficient removal. What is called bioavailability is the share of a dose that reaches the circulation, judged against a reference dose that is usually intravenous. The low end stands for little systemic uptake, the high end for much systemic uptake. Usually IC50 stands for the point on the concentration scale where inhibition reaches its midpoint. In general, EC50 refers to the concentration at which the effect is half-maximal.

≈ marks a conversion by molar mass, not a printed value. Where only a bound is given, the exact number is not on record here.

Experimental findings from ChEMBL document CHEMBL6127064, “Discovery of GNE-6893, a Potent, Selective, Orally Bioavailable Small Molecule Inhibitor of HPK1” (ACS Med Chem Lett, 2024) are described below.

A short description of data set [1]: Inhibition of human full length HPK1-T165E/S171E mutant expressed in baculovirus expression system assessed as inhibition of SLP76 phosphorylation using biotinylated SLP76 as substrate preincubated for 30 mins followed by incubation with substrate in presence of ATP and measured for 60 mins by HTRF assay. For orientation: TR-FRET usually uses a lanthanide donor and a delayed reading to cut background.

The nature of data set [2]: Volume of distribution at steady state in Sprague-Dawley rat at 0.5 mg/kg, iv measured for 8 hrs by LC-MS/MS analysis. In kind it is ADME, organism-based. Particulars: in vivo, read-out: Vdss.
Data set [3] can be described thus: Half life in C57BL/6 mouse at 25 mg/kg, po or 1 mg/kg, iv measured for 24 hrs by LC-MS/MS analysis. Particulars: in vivo. The class given is ADME, organism-based.
A short description of data set [4]: Kinetic solubility of the compound in PBS at pH 7.4. In kind it is physicochemical. Particulars: read-out: Kinetic_solubility.
Data set [5] can be described thus: Apparent permeability of the compound across apical to basolateral side in dog MDCK1 cells at 10 uM by LC-MS/MS analysis. Particulars: MDCK. In kind it is ADME, cell-based, Canis lupus familiaris.
The nature of data set [6]: Half life in Sprague-Dawley rat at 0.5 mg/kg, iv measured for 8 hrs by LC-MS/MS analysis. Particulars: in vivo. The class given is ADME, organism-based.
A short description of data set [7]: Clearance in Sprague-Dawley rat at 0.5 mg/kg, iv measured for 8 hrs by LC-MS/MS analysis. In kind it is ADME, organism-based. Particulars: in vivo.
Data set [8] in a line: Oral bioavailability in Sprague-Dawley rat. The class given is ADME, organism-based. Particulars: in vivo.
Data set [9] is described as follows: Volume of distribution at steady state in C57BL/6 mouse at 25 mg/kg, po or 1 mg/kg, iv measured for 24 hrs by LC-MS/MS analysis. In kind it is ADME, organism-based. Particulars: in vivo.
Data set [10] addresses T1, Mitogen-activated protein kinase kinase kinase kinase 1 (Homo sapiens, UniProt Q92918). Description: Inhibition of HPK1 in primary human Pan T cells assessed as increase in IL-2 secretion pretreated for 30 mins followed by incubation with anti-CD3/anti-CD28 and measured after 4 hrs by MSD assay relative to control. In kind it is cell-based. Particulars: T cell, time 4.5 hrs.
Target sequence in this assay (Q92918 whole entry, looked up): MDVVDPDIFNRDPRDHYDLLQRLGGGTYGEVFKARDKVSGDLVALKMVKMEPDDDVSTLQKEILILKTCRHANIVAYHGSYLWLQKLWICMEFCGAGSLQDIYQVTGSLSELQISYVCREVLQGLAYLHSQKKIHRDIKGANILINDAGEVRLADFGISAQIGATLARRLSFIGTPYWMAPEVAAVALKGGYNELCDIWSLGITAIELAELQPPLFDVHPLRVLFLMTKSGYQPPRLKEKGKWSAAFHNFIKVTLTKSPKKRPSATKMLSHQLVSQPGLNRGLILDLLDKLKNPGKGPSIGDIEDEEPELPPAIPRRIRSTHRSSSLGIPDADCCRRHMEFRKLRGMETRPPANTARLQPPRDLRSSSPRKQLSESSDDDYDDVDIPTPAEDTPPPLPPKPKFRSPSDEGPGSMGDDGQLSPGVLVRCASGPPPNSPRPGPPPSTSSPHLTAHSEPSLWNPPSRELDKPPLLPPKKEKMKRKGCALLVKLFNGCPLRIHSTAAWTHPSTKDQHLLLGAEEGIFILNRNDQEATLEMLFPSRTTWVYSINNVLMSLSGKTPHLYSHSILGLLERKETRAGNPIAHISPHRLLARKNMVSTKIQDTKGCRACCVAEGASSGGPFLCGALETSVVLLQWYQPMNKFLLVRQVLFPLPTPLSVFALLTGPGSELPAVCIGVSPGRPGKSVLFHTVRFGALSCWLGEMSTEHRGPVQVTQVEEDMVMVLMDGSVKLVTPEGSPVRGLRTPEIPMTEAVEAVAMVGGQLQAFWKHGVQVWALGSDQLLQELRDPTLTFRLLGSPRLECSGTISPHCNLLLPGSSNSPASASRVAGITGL

The target in data set [11] is T1, Mitogen-activated protein kinase kinase kinase kinase 1. Description: Inhibition of HPK1 in human Jurkat cells assessed as inhibition of anti-CD3/anti-CD28-induced SLP76 phosporylation at Ser376 residue incubated for 30 mins by ELISA. In kind it is cell-based. For orientation: An ELISA detects its analyte on a solid surface through an enzyme-linked reagent.
Target sequence in this assay (Q92918 whole entry): as the sequence (Q92918 whole entry, looked up) above
Data set [12] has the same target. Put plainly: Inhibition of HPK1 in primary human Pan T cells assessed as increase in IL-2 secretion pretreated for 30 mins followed by incubation with anti-CD3/anti-CD28 and measured after 4 hrs by MSD assay. In kind it is cell-based, T cell.
Target sequence in this assay (Q92918 whole entry): as the sequence (Q92918 whole entry, looked up) above
The nature of data set [13]: Oral bioavailability in C57BL/6 mouse at 25 mg/kg measured for 24 hrs by LC-MS/MS analysis. In kind it is ADME, organism-based. Particulars: in vivo.

For `Cc1ccncc1-c1cc2cc(Nc3cnn([C@@H](C)C#N)c3)ncc2c(N)c1F`, the Ki in [1] was 32 nM.

For the compound `Cc1c(N)cncc1-c1cc2cc(NC(=O)OC3CCOCC3)ncc2c(N)c1F`, the Vd in data set [2] amounted to 3.2 L/kg. Further, the half-life was 1.3 h in data set [3] and 1.2 h in [6]. Further, the solubility kinetic in data set [4] was determined as 13 µM (≈ 5.35 µg/mL). For the same compound, in data set [5], the apparent permeability from apical to basolateral (Papp A→B) at 10 µM was 15 ×10⁻⁶ cm/s. In data set [7], this compound gave a clearance of 38 mL/min/kg. In addition, the bioavailability in data set [8] turned out to be 94%. This compound also had a Vdss in [9] of 1.7 L/kg. Further, the Ki in data set [1] turned out to be 0.498 nM.

Consider `Cc1ccncc1-c1cc(N)c2cnc(NC(=O)[C@@H]3C[C@H]3C#N)cc2c1`, for which the fold change (FC) in data set [10] came out at 5. Besides, in [1], the Ki came out at 4.9 nM.

As for `Cc1c(-c2cc3cc(NC(=O)OC4CCOCC4)ncc3c(N)c2F)cnc2c1NCCO2`, in data set [2], the Vd was 1.5 L/kg. Besides, in data set [11], the IC50 was 97 nM. Moreover, the half-life in data set [3] was 1.1 h; in [6] it was 1.5 h. For the same compound, the solubility kinetic in data set [4] was 1.5 µM (≈ 0.68 µg/mL). Moreover, in data set [5], the Papp A→B at 10 µM was determined as 18 ×10⁻⁶ cm/s. In addition, the EC50 in [12] was 39 nM. The same compound yielded a clearance in [7] of 17 mL/min/kg. Besides, the bioavailability was 16% in [8] and 31% in data set [13] (C57BL/6, mouse). Further, the Vdss in [9] is 1.3 L/kg. Besides, the Ki in [1] was less than 0.019 nM.

With `Cc1ccncc1-c1cc2cc(Nc3cc4n(n3)CC(=O)N(C)CC4)ncc2c(N)c1F`, in [1], the Ki was determined as 0.16 nM.

Regarding `Cc1c(N)cncc1-c1cc2cc(Nc3cc4n(n3)CC(=O)N(C)CC4)ncc2c(N)c1F`, the Vd in [2] was determined as 2.2 L/kg. The IC50 in data set [11] worked out at 110 nM. Moreover, the values for the half-life in [3] and in data set [6] were 0.26 h and 0.57 h, respectively. Also, in data set [5], the Papp A→B at 10 µM was 0.4 ×10⁻⁶ cm/s. Besides, in data set [12], the EC50 is 11 nM. The same compound came in with a clearance in data set [7] of 64 mL/min/kg. The F result in data set [13] (mouse, po, 25 mg/kg, 24 h, BLD = below limit of detection) is recorded as “Bld”. This compound also came in with a Vdss in [9] of 1.3 L/kg.
